Measured values reported in the Kinase Knowledgebase extract (Sharma et al. 2016).

Biological target: MAPK14 (human) (UniProt Q16539)
Assay: Inhibition of MAPK14 Kinase Activity

Sequence of MAPK14 (human) (Q16539 whole entry, looked up): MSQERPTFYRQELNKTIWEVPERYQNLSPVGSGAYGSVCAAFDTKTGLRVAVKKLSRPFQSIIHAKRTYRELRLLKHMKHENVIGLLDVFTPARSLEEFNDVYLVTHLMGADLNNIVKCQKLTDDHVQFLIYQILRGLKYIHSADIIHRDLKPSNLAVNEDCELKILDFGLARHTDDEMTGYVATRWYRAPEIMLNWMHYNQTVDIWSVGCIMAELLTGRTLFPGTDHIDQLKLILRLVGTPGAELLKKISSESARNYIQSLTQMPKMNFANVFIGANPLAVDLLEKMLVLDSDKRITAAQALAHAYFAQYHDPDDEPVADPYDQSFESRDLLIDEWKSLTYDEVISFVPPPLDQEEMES

| Compound | IC50 [µM] |
| --- | --- |
| CCC(C)(C#N)NC(=O)c1ccc(-c2cc(C(=O)NC3CC3)cc(F)c2C)cc1 (stereo unspecified) | < 10 |
| Cc1c(F)cc(C(=O)NC2CC2)cc1-c1ccc(C(=O)NC2(C#N)CCCCC2)cc1 | < 10 |
| Cc1c(F)cc(C(=O)NC2CC2)cc1-c1ccc(C(=O)N2CCC2)cc1 | < 10 |
| Cc1c(F)cc(C(=O)NC2CC2)cc1-c1ccc(C(=O)NC(C)(C)C(=O)C(C)C)cc1 | < 10 |
| Cc1c(F)cc(C(=O)NC2CC2)cc1-c1ccc(C(=O)NCC2(O)CCCCC2)cc1 | < 10 |
| Cc1c(F)cc(C(=O)NC2CC2)cc1-c1ccc(C(=O)NC(CO)C2CC2)cc1 (stereo unspecified) | < 10 |
| Cc1c(F)cc(C(=O)NC2CC2)cc1-c1ccc(C(=O)NCCS(C)(=O)=O)cc1 | < 10 |
| CC(=O)CC(C)(C)NC(=O)c1ccc(-c2cc(C(=O)NC3CC3)cc(F)c2C)cc1 | < 10 |
| CSCCNC(=O)c1ccc(-c2cc(C(=O)NC3CC3)cc(F)c2C)cc1 | < 10 |
| Cc1c(F)cc(C(=O)NC2CC2)cc1-c1ccc(C(=O)N2CCCC2)cc1 | < 10 |
| Cc1c(F)cc(C(=O)NC2CC2)cc1-c1ccc(C(=O)NCCC#N)cc1 | < 10 |
